The format of the data set is physicochemical. The following applies: in 100 μL of isobutyl alcohol. Here is the method:
The amount of BHT dissolved in 100 μL of isobutyl alcohol was changed. […] For other solvents, solubility was similarly confirmed at a ratio of BHT:solvent=1:4. […] The reagents used were those manufactured by FUJIFILM Wako Pure Chemical Corporation.

As for dibutylhydroxytoluene [BHT], the “amount of BHT uniformly dissolved” value is listed as “up to 25 mg”.

The record behind these values is patent US20250280826A1, “PLANT GROWTH PROMOTER” (KAO CORPORATION, priority 2022, published 2025).
